Source: ChEMBL document CHEMBL1201862, “PubChem BioAssay data set” (2004)
Several values for one entry are separate records, joined by “and”; a condition that tells them apart may be missing. Equal values may be shown once. Activity calls are given as the source filed them.

Columns and labels:
[1] = HIV-1 AD8 envelope cell-cell fusion blockers – cherry-pick, dose response (AID 652062); assay type: functional, cell-based;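 also: luciferase signal from cell-cell fusion driven by HIV-1 clade B AD8 Env; potency is for inhibitors of fusion seen as a drop in luminescence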
[2] = molecular target: Cyclin-dependent kinase 5/CDK5 activator 1 (Homo sapiens, UniProt Q00535); experiment: blockade of human CDK5 activity – biochemical, cherry-picked samples, set 2, dose response (AID 504545)
[3] = off-target signal loss in HeLa-CEM21 co-culture – HeLa F-luc CTL cells, cherry-picked, counter-screen for HIV-1 Env fusion inhibitor project, dose response (AID 652040); assay type: functional, cell-based;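 also: potency for signal decrease marking cytotoxic or nonspecific inhibition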
[4] = molecular target: T1, Heat shock factor protein 1 (Mus musculus, UniProt P38532); experiment: decrease of HSF1-responsive luciferase luminescence – cell-based, NIH3T3, dose retest, confirmation (AID 2382); assay type: functional;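 also: NIH3T3 fibroblasts with HSF1-driven luciferase reporter stressed by proteasome inhibitor MG132; luminescence from HSF1-driven luciferase expression after 8 hours of MG132 stress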
T1 sequence (P38532 whole entry): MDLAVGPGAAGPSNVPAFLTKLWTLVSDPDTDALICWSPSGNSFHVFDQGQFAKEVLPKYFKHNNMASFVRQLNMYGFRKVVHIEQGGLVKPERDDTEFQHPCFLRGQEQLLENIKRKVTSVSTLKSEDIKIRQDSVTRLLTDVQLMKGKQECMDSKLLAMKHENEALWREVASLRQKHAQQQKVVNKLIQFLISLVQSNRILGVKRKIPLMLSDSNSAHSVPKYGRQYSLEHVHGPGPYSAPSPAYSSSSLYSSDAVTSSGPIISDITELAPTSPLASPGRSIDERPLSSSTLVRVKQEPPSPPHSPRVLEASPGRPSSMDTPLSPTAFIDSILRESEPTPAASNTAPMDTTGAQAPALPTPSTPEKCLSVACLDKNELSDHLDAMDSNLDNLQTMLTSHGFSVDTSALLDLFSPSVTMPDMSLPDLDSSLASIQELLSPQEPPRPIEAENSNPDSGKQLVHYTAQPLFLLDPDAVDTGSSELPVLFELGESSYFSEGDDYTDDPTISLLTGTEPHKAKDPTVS

[5] = molecular target: Paired box protein Pax-8 (Homo sapiens, UniProt Q06710); experiment: PAX8 transcriptional activity inhibition in RMG-I – RMG-I cells, luciferase, cherry-pick, dose response (AID 687027); assay type: functional, cell-based;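 also: luciferase reporter driven by Pax8 target thyroperoxidase promoter measured by SteadyGlo luminescence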
[6] = alpha-synuclein stem-loop luciferase translation blockers – H4 neuroglioma cells, luminescence, confirmation (AID 1988); assay type: functional, cell-based
[7] = molecular target: Latent membrane protein 1 (Human herpesvirus 4 (strain B95-8), UniProt P03230); experiment: LMP1 TES1 pathway selectivity over dsRED control – imaging, HEK293T, dual-color eGFP/dsRED, cherry-picks, selectivity assay for LMP1 NF-kB inhibitor project, dose response (AID 588398); assay type: functional, cell-based
[8] = Shn3 3'UTR reporter signal decrease – cell-based, Clone20 osteoblasts, firefly luciferase, cherry-pick, set 2, Schnurri-3 inhibitor project, dose response (AID 720490); assay type: functional;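 also: actives lower the luminescence signal as inhibitors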
[9] = Luminescence Cell-Based Dose Response HTS to Identify Inhibitors of 5'UTR Stem-Loop Driven Prion Protein mRNA Translation in H4 Neuroglioblastoma Cells. [Related pubchem assays: 1827 (Project Summary), 1813 (Primary HTS)]; assay type: functional
[10] = Shn3 transcript knock-down in Clone20 cells – cell-based, qPCR, cherry-pick, dose response (AID 743415); assay type: functional
[11] = blockers of HIV-1 ZM109 envelope-driven cell-cell fusion – HeLa effector, CEM target cells, luciferase, cherry-pick, dose response (AID 652058); assay type: functional, cell-based;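 also: luciferase signal from HIV-1 Env mediated cell-cell fusion of effector and target cells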
[12] = HEK-293T viability loss, compound-treated – cell-based, uHTS hits, cytotoxicity control for B/T-cell NF-kB inhibitor project, dose response (AID 489019); assay type: functional;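 also: IC50 reflects cytotoxicity as loss of cell viability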
[13] = luciferase reporter signal suppression in cells – H4 neuroglioma cells, luminescence, dose response (AID 1990); assay type: functional, cell-based
[14] = tested on: Jurkat; experiment: blockers of NF-kB activation in T cells – Jurkat, luciferase reporter, luminescence, B- and T-cell, dose response (AID 489004); assay type: functional, cell-based; details: Homo sapiens;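 also: NF-kB luciferase reporter Jurkat cells stimulated with PMA plus ionomycin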
[15] = viability loss in CEM21 cells – cell-based, CellTiter-Glo luminescence, cherry-picked, cytotoxicity control for viral fusion inhibitor project, dose response (AID 652042); assay type: functional;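 also: potency for signal decrease meaning cytotoxicity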
[16] = blockers of HIV-1 envelope-mediated cell-cell fusion – cherry-pick, dose response (AID 652057); assay type: functional, cell-based
[17] = reduction of Shn3 3'UTR-driven luciferase in osteoblasts – cell-based, Clone20 osteoblasts, firefly luciferase, cherry-picked, dose response (AID 624132); assay type: functional;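 also: firefly luciferase luminescence from reporter carrying the Shn3 3'UTR in osteoblasts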
[18] = tested on: A-375; experiment: MITF: Counter assay: A375 proliferation Measured in Cell-Based System Using Plate Reader - 2084-03_Inhibitor_Dose_DryPowder_Activity. [Related pubchem assays (depositor defined):AID488944]; assay type: functional; details: Homo sapiens
[19] = tested on: A-375; experiment: proliferation inhibition in MITF-low A375 cells – cell-based, cherry-pick samples, set 2, counter-screen for MITF modulator project, dose response (AID 540335); assay type: functional; details: Homo sapiens
[20] = molecular target: Voltage-gated inwardly rectifying potassium channel KCNH2 (Homo sapiens, UniProt Q12809); details: Potency;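 also: confirmatory quantitative high-throughput screen measuring inhibition of hERG channel activity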
[21] = tested on: Streptococcus; experiment: GAS UMAA2166 growth inhibition – luminescence, BacTiterGlo, counter-screen for streptokinase expression inhibitor project, dose response (AID 1915); assay type: functional, organism-based;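 also: potency for reduction of bacterial viability or growth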
[22] = fluconazole-exposed Candida albicans growth modulators – fluorescence, retest, confirmation (AID 2467); assay type: functional, cell-based
[23] = molecular target: ATP-dependent molecular chaperone HSP82 (Candida albicans (strain WO-1) (Yeast), UniProt C4YTQ8); experiment: steroid-induced GRE reporter decrease in yeast – S. cerevisiae, luminescence, Hsp90 inhibitor project, dose response (AID 2400); assay type: functional, cell-based;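 also: beta-galactosidase luminescence from glucocorticoid response element reporter as proxy for Hsp90 function; inhibitor potency where signal loss means Hsp90 inhibition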
[24] = molecular target: Serine/threonine-protein phosphatase (Candida dubliniensis (strain CD36 / CBS 7987 / NCPF 3949 / NRRLY-17841) (Yeast), UniProt B9W6M3); experiment: blockers of CaCl2-induced CDRE-lacZ signaling – S. cerevisiae, luminescence, secondary, dose response (AID 2388); assay type: functional, cell-based;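 also: yeast reporter cells carrying a calcineurin-responsive lacZ construct stimulated with calcium chloride; luminescent beta-galactosidase reporter signal in whole cells rather than isolated phosphatase activity; potency for inhibition where a drop in reporter signal means calcineurin blockade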
[25] = NIH-3T3 fibroblast cytotoxicity, dose response, cytotoxicity control, cell-based, fluorescence, Alamar Blue, secondary assay (AID 2327); assay type: functional;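 also: NIH-3T3 mouse fibroblasts cultured with fluconazole at 8 µg/mL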
[26] = molecular target: Albumin (Bos taurus, UniProt P02769); experiment: Counterscreen for inhibitors of T-cell receptor (TCR)-CD3 interaction: Fluorescence-based biochemical high throughput dose response assay to identify inhibitors of T-cell receptor (TCR)-CD3 interaction using a TAMRA-labeled BSA probe.; assay type: functional
[27] = tested on: Streptococcus sp. 'group A'; experiment: Streptococcus pyogenes SK(-)GAS viability under kanamycin – luminescence, BacTiterGlo, confirmation, counter-screen for streptokinase expression inhibitor project, dose response (AID 1900); assay type: functional, organism-based
[28] = molecular target: Beta-2 adrenergic receptor (Homo sapiens, UniProt P07550); experiment: ADRB2 activation measured by internalization – cell-based, FAP fluorogen, flow cytometry, cherry pick 1, dose response (AID 588763); assay type: functional
[29] = molecular target: Nonstructural protein 1 (Influenza A virus, UniProt Q194T2); assay type: functional, Influenza A virus (A/California/07/2009(H1N1))
[30] = molecular target: T2, Microphthalmia-associated transcription factor (Homo sapiens, UniProt O75030); experiment: reducers of TRPM1 reporter luminescence, concentration series – cell-based, SK-MEL-5, cherry-picked, set 3, MITF inhibitor project, dose response (AID 493073); assay type: functional;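 also: SK-MEL-5 melanoma cells with luciferase driven by the MITF target TRPM1 promoter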
T2 sequence (O75030 whole entry): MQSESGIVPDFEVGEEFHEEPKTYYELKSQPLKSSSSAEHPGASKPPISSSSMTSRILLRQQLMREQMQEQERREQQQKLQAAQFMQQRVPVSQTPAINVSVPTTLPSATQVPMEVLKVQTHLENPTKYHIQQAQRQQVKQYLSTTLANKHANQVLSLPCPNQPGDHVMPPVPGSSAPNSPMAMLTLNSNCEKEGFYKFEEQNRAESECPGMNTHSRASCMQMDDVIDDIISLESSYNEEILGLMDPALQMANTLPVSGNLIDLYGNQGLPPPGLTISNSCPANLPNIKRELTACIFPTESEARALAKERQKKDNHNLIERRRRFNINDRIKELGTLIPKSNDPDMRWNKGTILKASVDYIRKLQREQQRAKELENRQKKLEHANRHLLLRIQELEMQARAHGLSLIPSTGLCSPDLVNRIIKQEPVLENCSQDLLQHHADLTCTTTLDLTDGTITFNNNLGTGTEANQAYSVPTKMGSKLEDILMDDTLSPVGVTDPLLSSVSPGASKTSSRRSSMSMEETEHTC

[31] = molecular target: Glucose-6-phosphate 1-dehydrogenase (Homo sapiens, UniProt P11413); experiment: inhibition of Homo sapiens G6PD, dose series – biochemical, fluorescence, selectivity assay for P. falciparum G6PD inhibitor project, dose response (AID 504792); assay type: functional
[32] = tested on: HEK293; experiment: EBV LMP1 TES2 canonical NF-kB signalling blockers – cell-based, HEK293, luciferase, cherry-pick, dose response (AID 588343); assay type: functional; details: Homo sapiens
[33] = tested on: Vero; experiment: cells; assay type: functional, cell-based; details: Chlorocebus sabaeus
[34] = tested on: CHO; experiment: CHO cell viability loss, potency – luminescence, cytotoxicity control for TLR9-MyD88 binding inhibitor project, dose response (AID 588339); assay type: functional, cell-based, hamster; details: Cricetulus griseus;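 also: CHO cells stably coexpressing TLR9 and MyD88 fusions from primary screen; compound exposure lasted 48 hours before viability readout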
[35] = tested on: Vero; experiment: cells; assay type: functional; details: Chlorocebus sabaeus
[36] = molecular target: Heat shock protein HSP 90-alpha (Homo sapiens, UniProt P07900); assay type: functional, organism-based
[37] = molecular target: Glycogen synthase kinase-3 alpha (Homo sapiens, UniProt P49840); experiment: Inhibition of Human GSK-3 alpha Activity Measured in Biochemical System Using Microfluidics - 2063-06_Inhibitor_Dose_DryPowder_Activity. [Related pubchem assays (depositor defined):AID2709]
[38] = molecular target: Glycogen synthase kinase-3 beta (Homo sapiens, UniProt P49841); experiment: Inhibition of Human GSK-3 beta Activity Measured in Biochemical System Using Microfluidics - 2063-05_Inhibitor_Dose_DryPowder_Activity. [Related pubchem assays (depositor defined):AID2709]
[39] = tested on: Escherichia coli; experiment: microbe, parasite or virus in culture
[40] = molecular target: 5-hydroxytryptamine receptor 1A (Homo sapiens, UniProt P08908); assay type: functional
[41] = molecular target: Mu-type opioid receptor (Homo sapiens, UniProt P35372); experiment: Counterscreen for agonists of heterodimerization of the mu 1 (OPRM1) and delta 1 (OPRD1) opioid receptors: Luminescence-based cell-based high throughput dose response assay to identify agonists of OPRM1 homodimerization.; assay type: functional;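 also: U2OS cells expressing OPRM1 and beta-arrestin as split beta-galactosidase partners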
[42] = molecular target: 5-hydroxytryptamine receptor 5A (Homo sapiens, UniProt P47898); experiment: Counterscreen for agonists of OPRM1-OPRD1 heterodimerization: luminescence-based cell-based high throughput dose response assay to identify agonists of 5-hydroxytryptamine (serotonin) 5A receptor (HTR5A). [Related pubchem assays (depositor defined):AID504326, AID504355, AID504692, AID504904, AID504905]; assay type: functional
[43] = molecular target: Delta-type opioid receptor (Homo sapiens, UniProt P41143); experiment: Counterscreen for agonists of heterodimerization of the mu 1 (OPRM1) and delta 1 (OPRD1) opioid receptors: Luminescence-based cell-based high throughput dose response assay to identify agonists of OPRD1 homodimerization. [Related pubchem assays (depositor defined):AID504326, AID504355, AID504692, AID504904, AID504905]; assay type: functional
Delta-type opioid receptor, sequence (P41143 whole entry): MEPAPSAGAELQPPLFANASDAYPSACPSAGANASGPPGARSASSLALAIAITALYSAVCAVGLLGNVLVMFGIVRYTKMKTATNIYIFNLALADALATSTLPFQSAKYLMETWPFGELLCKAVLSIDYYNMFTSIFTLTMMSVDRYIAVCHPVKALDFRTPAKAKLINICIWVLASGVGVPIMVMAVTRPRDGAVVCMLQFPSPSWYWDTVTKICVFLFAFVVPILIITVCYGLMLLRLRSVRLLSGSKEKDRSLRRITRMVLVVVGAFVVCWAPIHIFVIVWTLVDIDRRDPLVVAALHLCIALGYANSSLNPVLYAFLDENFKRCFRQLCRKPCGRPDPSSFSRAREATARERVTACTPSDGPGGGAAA

Latent membrane protein 1, sequence (P03230 whole entry): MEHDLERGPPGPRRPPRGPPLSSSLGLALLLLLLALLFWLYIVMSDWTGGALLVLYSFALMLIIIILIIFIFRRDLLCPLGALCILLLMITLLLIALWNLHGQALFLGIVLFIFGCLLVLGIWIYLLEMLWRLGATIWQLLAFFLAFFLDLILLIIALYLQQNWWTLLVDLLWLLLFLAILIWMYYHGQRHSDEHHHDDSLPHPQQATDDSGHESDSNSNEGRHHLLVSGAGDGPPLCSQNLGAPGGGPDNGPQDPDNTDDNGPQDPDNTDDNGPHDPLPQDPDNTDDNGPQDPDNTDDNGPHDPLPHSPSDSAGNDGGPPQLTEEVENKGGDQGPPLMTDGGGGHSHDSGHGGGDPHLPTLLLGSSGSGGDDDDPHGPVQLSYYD
Voltage-gated inwardly rectifying potassium channel KCNH2, sequence (Q12809 whole entry): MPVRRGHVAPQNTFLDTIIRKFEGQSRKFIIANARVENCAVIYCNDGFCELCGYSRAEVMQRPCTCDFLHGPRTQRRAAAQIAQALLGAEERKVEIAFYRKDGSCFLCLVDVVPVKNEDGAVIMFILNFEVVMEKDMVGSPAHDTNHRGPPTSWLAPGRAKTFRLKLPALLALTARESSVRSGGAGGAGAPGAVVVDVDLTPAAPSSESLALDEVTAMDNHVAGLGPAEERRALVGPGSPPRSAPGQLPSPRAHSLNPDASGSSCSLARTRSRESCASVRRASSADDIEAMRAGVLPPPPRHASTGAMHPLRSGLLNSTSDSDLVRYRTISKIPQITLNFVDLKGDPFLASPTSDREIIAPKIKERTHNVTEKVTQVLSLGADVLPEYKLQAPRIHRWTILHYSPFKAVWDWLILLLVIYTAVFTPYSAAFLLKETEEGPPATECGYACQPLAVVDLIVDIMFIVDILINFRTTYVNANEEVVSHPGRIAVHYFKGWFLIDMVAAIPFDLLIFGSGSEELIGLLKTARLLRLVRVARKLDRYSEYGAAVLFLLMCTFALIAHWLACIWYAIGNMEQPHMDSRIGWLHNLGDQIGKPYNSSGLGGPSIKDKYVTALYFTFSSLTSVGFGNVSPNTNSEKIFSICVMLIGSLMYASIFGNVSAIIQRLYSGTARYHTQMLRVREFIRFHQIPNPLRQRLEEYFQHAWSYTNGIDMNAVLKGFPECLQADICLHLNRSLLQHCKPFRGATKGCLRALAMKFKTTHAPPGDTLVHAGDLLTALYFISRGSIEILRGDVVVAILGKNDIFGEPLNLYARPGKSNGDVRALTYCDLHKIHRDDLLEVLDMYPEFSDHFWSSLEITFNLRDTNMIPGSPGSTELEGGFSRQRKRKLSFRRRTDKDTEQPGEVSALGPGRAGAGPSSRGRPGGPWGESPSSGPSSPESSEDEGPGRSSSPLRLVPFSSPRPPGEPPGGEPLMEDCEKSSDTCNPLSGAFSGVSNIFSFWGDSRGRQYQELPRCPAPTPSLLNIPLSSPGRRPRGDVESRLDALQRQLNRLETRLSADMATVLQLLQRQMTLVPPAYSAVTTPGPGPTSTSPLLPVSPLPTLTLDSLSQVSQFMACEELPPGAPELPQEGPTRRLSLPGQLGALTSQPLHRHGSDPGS
Mu-type opioid receptor, sequence (P35372 whole entry): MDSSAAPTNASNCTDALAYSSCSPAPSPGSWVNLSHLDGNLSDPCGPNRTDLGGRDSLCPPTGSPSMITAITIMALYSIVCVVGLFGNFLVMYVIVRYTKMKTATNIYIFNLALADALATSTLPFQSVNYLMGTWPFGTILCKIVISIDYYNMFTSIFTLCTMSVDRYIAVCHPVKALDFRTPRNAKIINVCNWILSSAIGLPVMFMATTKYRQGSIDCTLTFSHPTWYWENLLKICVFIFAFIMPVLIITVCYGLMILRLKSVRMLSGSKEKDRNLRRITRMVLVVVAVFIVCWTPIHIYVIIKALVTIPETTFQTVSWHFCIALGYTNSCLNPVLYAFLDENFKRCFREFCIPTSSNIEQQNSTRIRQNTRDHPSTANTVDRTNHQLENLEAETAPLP
ATP-dependent molecular chaperone HSP82, sequence (C4YTQ8 whole entry): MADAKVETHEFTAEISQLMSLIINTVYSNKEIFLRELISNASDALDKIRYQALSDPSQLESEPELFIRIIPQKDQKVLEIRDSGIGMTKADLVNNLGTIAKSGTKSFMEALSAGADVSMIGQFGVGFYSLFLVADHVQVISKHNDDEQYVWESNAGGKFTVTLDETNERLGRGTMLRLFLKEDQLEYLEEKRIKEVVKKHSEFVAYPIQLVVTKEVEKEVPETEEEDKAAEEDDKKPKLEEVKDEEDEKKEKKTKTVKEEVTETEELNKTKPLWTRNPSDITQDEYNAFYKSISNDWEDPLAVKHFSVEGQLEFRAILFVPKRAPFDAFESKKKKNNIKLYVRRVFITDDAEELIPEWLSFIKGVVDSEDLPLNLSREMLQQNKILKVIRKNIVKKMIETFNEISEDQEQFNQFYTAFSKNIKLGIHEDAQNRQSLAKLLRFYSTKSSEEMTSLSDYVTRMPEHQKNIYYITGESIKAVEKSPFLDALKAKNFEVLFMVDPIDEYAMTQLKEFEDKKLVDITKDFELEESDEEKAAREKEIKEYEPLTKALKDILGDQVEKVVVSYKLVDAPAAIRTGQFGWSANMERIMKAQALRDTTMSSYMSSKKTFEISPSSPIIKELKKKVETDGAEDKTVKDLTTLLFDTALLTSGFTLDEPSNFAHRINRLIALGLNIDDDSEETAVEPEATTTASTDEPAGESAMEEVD
Glycogen synthase kinase-3 beta, sequence (P49841 whole entry): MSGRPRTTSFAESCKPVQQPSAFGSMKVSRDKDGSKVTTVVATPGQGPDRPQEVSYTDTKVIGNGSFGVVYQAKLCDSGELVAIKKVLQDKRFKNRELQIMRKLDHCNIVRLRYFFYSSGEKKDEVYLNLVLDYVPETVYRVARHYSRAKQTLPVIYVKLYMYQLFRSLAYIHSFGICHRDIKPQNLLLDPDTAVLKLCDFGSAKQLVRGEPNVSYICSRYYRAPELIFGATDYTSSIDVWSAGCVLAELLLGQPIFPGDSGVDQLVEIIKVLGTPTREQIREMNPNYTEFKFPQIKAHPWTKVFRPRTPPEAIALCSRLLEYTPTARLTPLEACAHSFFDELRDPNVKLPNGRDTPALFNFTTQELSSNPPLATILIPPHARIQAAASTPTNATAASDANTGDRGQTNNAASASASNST
5-hydroxytryptamine receptor 5A, sequence (P47898 whole entry): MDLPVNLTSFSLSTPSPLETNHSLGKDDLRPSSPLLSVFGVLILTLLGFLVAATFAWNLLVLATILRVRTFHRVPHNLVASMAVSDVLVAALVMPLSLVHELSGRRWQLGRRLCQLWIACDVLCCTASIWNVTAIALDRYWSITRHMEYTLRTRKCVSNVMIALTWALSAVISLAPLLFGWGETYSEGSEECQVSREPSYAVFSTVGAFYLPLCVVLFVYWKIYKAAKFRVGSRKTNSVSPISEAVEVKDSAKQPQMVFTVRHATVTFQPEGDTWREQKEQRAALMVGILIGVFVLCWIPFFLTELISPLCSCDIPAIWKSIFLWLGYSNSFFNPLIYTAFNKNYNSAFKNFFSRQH
Albumin, sequence (P02769 whole entry): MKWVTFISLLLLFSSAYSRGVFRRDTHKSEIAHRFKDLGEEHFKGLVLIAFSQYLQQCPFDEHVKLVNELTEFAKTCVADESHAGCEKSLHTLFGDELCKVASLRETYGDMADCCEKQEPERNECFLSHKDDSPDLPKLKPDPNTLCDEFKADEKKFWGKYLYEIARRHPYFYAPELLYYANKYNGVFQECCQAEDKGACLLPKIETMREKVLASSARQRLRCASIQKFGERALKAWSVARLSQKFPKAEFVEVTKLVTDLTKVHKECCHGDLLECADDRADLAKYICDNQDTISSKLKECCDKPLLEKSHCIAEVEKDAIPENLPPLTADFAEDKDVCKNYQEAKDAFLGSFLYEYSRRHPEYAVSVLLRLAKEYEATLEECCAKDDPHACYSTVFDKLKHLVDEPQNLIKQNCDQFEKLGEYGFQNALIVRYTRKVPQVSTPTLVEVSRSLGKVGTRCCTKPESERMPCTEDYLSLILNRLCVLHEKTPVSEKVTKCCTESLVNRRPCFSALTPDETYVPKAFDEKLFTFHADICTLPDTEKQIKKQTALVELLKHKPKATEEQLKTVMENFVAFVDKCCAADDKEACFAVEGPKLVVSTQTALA
5-hydroxytryptamine receptor 1A, sequence (P08908 whole entry): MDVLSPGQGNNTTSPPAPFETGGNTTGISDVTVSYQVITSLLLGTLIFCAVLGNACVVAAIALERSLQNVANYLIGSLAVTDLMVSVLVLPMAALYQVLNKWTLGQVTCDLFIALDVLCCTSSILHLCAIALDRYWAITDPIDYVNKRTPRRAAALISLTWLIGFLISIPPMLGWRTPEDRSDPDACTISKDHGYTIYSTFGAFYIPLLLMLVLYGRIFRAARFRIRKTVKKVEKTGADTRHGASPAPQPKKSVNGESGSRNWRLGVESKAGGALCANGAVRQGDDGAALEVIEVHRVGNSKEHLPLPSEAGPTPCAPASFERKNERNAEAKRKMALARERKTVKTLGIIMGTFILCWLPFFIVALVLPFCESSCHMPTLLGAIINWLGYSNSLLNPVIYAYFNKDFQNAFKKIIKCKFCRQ

OCCCNc1nccc(-c2cc(Nc3cccc(Cl)c3)ncn2)n1
active: AC50 [1] 0.569 µM | AC50 [2] 2.96 µM | AC50 [3] 1.35 µM | EC50 [4] 3.8 µM | AC50 [5] 2.7 µM | EC50 [6] 1.86 µM | AC50 [7] 0.535 µM | AC50 [8] 2.71 µM | EC50 [9] 5.3 µM | AC50 [10] 5.08 µM | AC50 [11] < 0.26 µM | EC50 [13] 2.33 µM | IC50 [14] 0.32 µM | AC50 [15] 0.418 µM | AC50 [16] 0.417 µM | AC50 [17] 2.61 µM
inactive: IC50 [12] > 80 µM

C/C(=N\Nc1cc(N2CCOCC2)ncn1)c1ccccc1
active: AC50 [18] > 35 µM | AC50 [19] > 35 µM

ClC(Cl)=C(c1ccc(Cl)cc1)c1ccc(Cl)cc1 [DICHLORODIPHENYLDICHLOROETHYLENE]
inconclusive: AC50 [20] 15.8 µM and 20 µM

Cc1cc(C(=O)N/N=C/c2cc(Cl)cc([N+](=O)[O-])c2O)c2ccccc2n1
inactive: EC50 [24] > 180 µM | IC50 [26] > 94.1 µM
active: EC50 [21] 1.51 µM | EC50 [22] 14.7 µM | EC50 [23] 17.5 µM | EC50 [25] 34.3 µM | EC50 [27] 1.03 µM

Cc1cc(C)cc(C(=O)NC(CC(N)=O)c2ccc(N3CCN(c4ccccn4)CC3)c([N+](=O)[O-])c2)c1 (stereo not given)
active: EC50 [28] 0.714 µM

CC(=NNC(=S)N1CCN(c2ccccn2)CC1)c1nccs1
inactive: IC50 [31] > 80 µM
active: IC50 [29] 3.38 µM | AC50 [30] 0.681 µM | AC50 [32] 4.44 µM | IC50 [33] > 25 µM | IC50 [34] 0.11 µM | AC50 [7] 5.18 µM | AC50 [19] 34.7 µM | CC50 [35] 8.98 µM | AC50 [36] 2.18 µM

O/N=C/c1cn(-c2ccccc2)nc1-c1cccnc1
active: AC50 [37] 0.828 µM | AC50 [38] 0.246 µM

Cn1c(-c2ccccc2)cnc1SCc1nc(O)c2ccccc2n1
active: AC50 [39] 234 µM
> 50 µM (not active): EC50 [40]

CCOC(=O)C1(c2ccccc2)CCN(CCC(=O)Nc2cccc(Br)c2)CC1
inactive: EC50 [41] 40.6 µM | EC50 [42] > 92.5 µM | EC50 [43] 56.8 µM
